Data from US10947252B2, “Inhibitors of KEAP1-Nrf2 protein-protein interaction” (Janssen Pharmaceutica NV, priority 2018, dated 2021).

Assays:
[1] = target: Kelch domain of human KEAP1 (321-624 aa) (Homo sapiens (Human), UniProt Q14145); test: KEAP1 KELCH ThermoFluor binding assay; conditions: KEAP Kelch […], 1,8-ANS, pH 7.0, average of results obtained, read-out: Tf Kd;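 also: Ligand-induced melting temperature shift of E. coli-expressed KEAP1 Kelch protein, Kd estimated from concentration-response curves of ΔTm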
Kelch domain of human KEAP1 (321-624 aa), sequence (Q14145 321-624): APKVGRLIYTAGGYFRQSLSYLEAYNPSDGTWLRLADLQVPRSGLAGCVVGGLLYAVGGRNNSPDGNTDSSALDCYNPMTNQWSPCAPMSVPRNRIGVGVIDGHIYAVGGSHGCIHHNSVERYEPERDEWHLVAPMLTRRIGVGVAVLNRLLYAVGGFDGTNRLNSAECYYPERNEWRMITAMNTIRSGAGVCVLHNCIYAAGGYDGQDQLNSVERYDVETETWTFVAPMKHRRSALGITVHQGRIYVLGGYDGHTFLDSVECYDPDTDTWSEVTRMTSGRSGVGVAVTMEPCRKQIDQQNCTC

[2] = system: Glo-Response ARE-luc2P HEK293 cell line; test: ARE luciferase reporter cell-based assay; conditions: Homo sapiens, HEK293, 24 h, average of results obtained;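 also: luciferase signal tracks Nrf2 activation of the ARE once compounds disrupt KEAP1-Nrf2 binding, read with One-Glo reagent, DMSO serving as low control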

Compound	Kd [1] [nM]	EC50 [2] [nM]
CC[C@@H]1CN(Cc2cc([C@H](CC(=O)O)c3ccn4c(C(F)(F)F)nnc4c3)ccc2C)S(=O)(=O)c2cccnc2O1 (single isomer, unassigned) [Example 257, (*S)-3-(3-(((R)-4-Ethyl-1,1-dioxido-3,4-dihydro-2H-pyrido[2,3-b][1,4,5]oxathiazepin-2-yl)methyl)-4-methylphenyl)-3-(3-(trifluoromethyl)-[1,2,4]triazolo[4,3-a]pyridin-7-yl)propanoic Acid]	< 1	574
Cc1ccc([C@@H](CC(=O)O)c2ccn3c(C(F)(F)F)nnc3c2C)cc1CN1C[C@H]2CCCN2c2ccccc2S1(=O)=O (single isomer, unassigned) [Example 267, (*R)-3-(3-(((R)-5,5-Dioxido-7a,8,9,10-tetrahydrobenzo[f]pyrrolo[2,1-d][1,2,5]thiadiazepin-6(7H)-yl)methyl)-4-methylphenyl)-3-(8-methyl-3-(trifluoromethyl)-[1,2,4]triazolo[4,3-a]pyridin-7-yl)propanoic Acid]	< 1	90.4
Cc1ccc([C@H](CC(=O)O)c2ccn3c(C(F)(F)F)nnc3c2C)cc1CN1CC(C)(C)Oc2ncccc2S1(=O)=O (single isomer, unassigned) [Example 269, (*S)-3-(3-((4,4-Dimethyl-1,1-dioxido-3,4-dihydro-2H-pyrido[2,3-b][1,4,5]oxathiazepin-2-yl)methyl)-4-methylphenyl)-3-(8-methyl-3-(trifluoromethyl)-[1,2,4]triazolo[4,3-a]pyridin-7-yl)propanoic Acid]	< 1	365
Cc1ccc([C@H](CC(=O)O)c2ccn3c(C(F)(F)F)nnc3c2C)cc1CN1C[C@@H]2CCCN2c2ccccc2S1(=O)=O (single isomer, unassigned) [Example 274, (*S)-3-(3-(((S)-5,5-Dioxido-7a,8,9,10-tetrahydrobenzo[f]pyrrolo[2,1-d][1,2,5]thiadiazepin-6(7H)-yl)methyl)-4-methylphenyl)-3-(8-methyl-3-(trifluoromethyl)-[1,2,4]triazolo[4,3-a]pyridin-7-yl)propanoic Acid]	1.19	51.2
CCc1nnc2c(C)c([C@@H](CC(=O)O)c3ccc(C)c(CN4C[C@H]5CCCN5c5ccccc5S4(=O)=O)c3)ccn12 (single isomer, unassigned) [Example 279, (*S)-3-(3-(((R)-5,5-Dioxido-7a,8,9,10-tetrahydrobenzo[f]pyrrolo[2,1-d][1,2,5]thiadiazepin-6(7H)-yl)methyl)-4-methylphenyl)-3-(3-ethyl-8-methyl-[1,2,4]triazolo[4,3-a]pyridin-7-yl)propanoic Acid]	< 1	235
CCc1nnc2c(C)c([C@H](CC(=O)O)c3ccc(C)c(CN4C[C@H]5CCCN5c5ccccc5S4(=O)=O)c3)ccn12 (single isomer, unassigned) [Example 280, (*R)-3-(3-(((R)-5,5-Dioxido-7a,8,9,10-tetrahydrobenzo[f]pyrrolo[2,1-d][1,2,5]thiadiazepin-6(7H)-yl)methyl)-4-methylphenyl)-3-(3-ethyl-8-methyl-[1,2,4]triazolo[4,3-a]pyridin-7-yl)propanoic Acid]	< 1	4010
CCc1nnc2c(C)c([C@H](CC(=O)O)c3ccc(C)c(CN4C[C@H]5CCCN5c5ncccc5S4(=O)=O)c3)ccn12 (single isomer, unassigned) [Example 283, (*R)-3-(3-(((R)-5,5-dioxido-7a,8,9,10-tetrahydropyrido[2,3-f]pyrrolo[2,1-d][1,2,5]thiadiazepin-6(7H)-yl)methyl)-4-methylphenyl)-3-(3-ethyl-8-methyl-[1,2,4]triazolo[4,3-a]pyridin-7-yl)propanoic Acid]	< 1	4170
Cc1ccc([C@H](CC(=O)O)c2ccn3c(C(F)(F)F)nnc3c2C)cc1CN1CC(C)(C)Oc2ccccc2S1(=O)=O (single isomer, unassigned) [Example 285, (*S)-3-(3-((4,4-Dimethyl-1,1-dioxido-3,4-dihydro-2H-benzo[b][1,4,5]oxathiazepin-2-yl)methyl)-4-methylphenyl)-3-(8-methyl-3-(trifluoromethyl)-[1,2,4]triazolo[4,3-a]pyridin-7-yl)propanoic Acid]	1.1	129

Continued, in another order:

Kd [1] [nM]	Compound	EC50 [2] [nM]
< 1	CC[C@@H]1CN(Cc2cc(C(CC(=O)O)c3ccn4c(C(F)(F)F)nnc4c3)ccc2C)S(=O)(=O)c2cccnc2O1 (single isomer, unassigned) [Example 258, (*R)-3-(3-(((R)-4-Ethyl-1,1-dioxido-3,4-dihydro-2H-pyrido[2,3-b][1,4,5]oxathiazepin-2-yl)methyl)-4-methylphenyl)-3-(3-(trifluoromethyl)-[1,2,4]triazolo[4,3-a]pyridin-7-yl)propanoic Acid]	428
< 1	Cc1ccc([C@H](CC(=O)O)c2ccn3c(C(F)(F)F)nnc3c2C)cc1CN1CC2(COC2)Oc2ncccc2S1(=O)=O (single isomer, unassigned) [Example 260, (*S)-3-(3-((1′,1′-Dioxidospiro[oxetane-3,4′-pyrido[2,3-b][1,4,5]oxathiazepin]-2′(3′H)-yl)methyl)-4-methylphenyl)-3-(8-methyl-3-(trifluoromethyl)-[1,2,4]triazolo[4,3-a]pyridin-7-yl)propanoic Acid]	101
< 1	Cc1ccc([C@@H](CC(=O)O)c2ccn3c(C(F)(F)F)nnc3c2C)cc1CN1CC2(COC2)Oc2ncccc2S1(=O)=O (single isomer, unassigned) [Example 261, (*R)-3-(3-((1′,1′-Dioxidospiro[oxetane-3,4′-pyrido[2,3-b][1,4,5]oxathiazepin]-2′(3′H)-yl)methyl)-4-methylphenyl)-3-(8-methyl-3-(trifluoromethyl)-[1,2,4]triazolo[4,3-a]pyridin-7-yl)propanoic Acid]	1390
< 1	Cc1ccc([C@H](CC(=O)O)c2ccn3c(C(F)(F)F)nnc3c2C)cc1CN1C[C@H]2CCCN2c2ccccc2S1(=O)=O (single isomer, unassigned) [Example 266, (*S)-3-(3-(((R)-5,5-Dioxido-7a,8,9,10-tetrahydrobenzo[f]pyrrolo[2,1-d][1,2,5]thiadiazepin-6(7H)-yl)methyl)-4-methylphenyl)-3-(8-methyl-3-(trifluoromethyl)-[1,2,4]triazolo[4,3-a]pyridin-7-yl)propanoic Acid]	14.6
1.28	Cc1ccc([C@@H](CC(=O)O)c2ccn3c(C(F)(F)F)nnc3c2C)cc1CN1CC(C)(C)Oc2ncccc2S1(=O)=O (single isomer, unassigned) [Example 270, (*R)-3-(3-((4,4-Dimethyl-1,1-dioxido-3,4-dihydro-2H-pyrido[2,3-b][1,4,5]oxathiazepin-2-yl)methyl)-4-methylphenyl)-3-(8-methyl-3-(trifluoromethyl)-[1,2,4]triazolo[4,3-a]pyridin-7-yl)propanoic Acid]	2420
< 1	Cc1ccc([C@H](CC(=O)O)c2ccn3c(C(F)(F)F)nnc3c2C)cc1CN1C[C@H]2CCCCN2c2ncccc2S1(=O)=O (single isomer, unassigned) [Example 272, (*S)-3-(3-(((*R)-5,5-Dioxido-7,7a,8,9,10,11-hexahydro-6H-dipyrido[2,1-d:2′,3′-f][1,2,5]thiadiazepin-6-yl)methyl)-4-methylphenyl)-3-(8-methyl-3-(trifluoromethyl)-[1,2,4]triazolo[4,3-a]pyridin-7-yl)propanoic Acid]	10.9
< 1	Cc1ccc([C@@H](CC(=O)O)c2ccn3c(C(F)(F)F)nnc3c2C)cc1CN1C[C@H]2CCCCN2c2ncccc2S1(=O)=O (single isomer, unassigned) [Example 273, (*R)-3-(3-(((*R)-5,5-Dioxido-7,7a,8,9,10,11-hexahydro-6H-dipyrido[2,1-d:2′,3′-f][1,2,5]thiadiazepin-6-yl)methyl)-4-methylphenyl)-3-(8-methyl-3-(trifluoromethyl)-[1,2,4]triazolo[4,3-a]pyridin-7-yl)propanoic Acid]	25.8
8.69	Cc1ccc([C@@H](CC(=O)O)c2ccn3c(C(F)(F)F)nnc3c2C)cc1CN1C[C@@H]2CCCN2c2ccccc2S1(=O)=O (single isomer, unassigned) [Example 275, (*R)-3-(3-(((S)-5,5-Dioxido-7a,8,9,10-tetrahydrobenzo[f]pyrrolo[2,1-d][1,2,5]thiadiazepin-6(7H)-yl)methyl)-4-methylphenyl)-3-(8-methyl-3-(trifluoromethyl)-[1,2,4]triazolo[4,3-a]pyridin-7-yl)propanoic Acid]	399
< 1	CCc1nnc2c(C)c([C@@H](CC(=O)O)c3ccc(C)c(CN4C[C@H]5CCCN5c5ncccc5S4(=O)=O)c3)ccn12 (single isomer, unassigned) [Example 282, (*S)-3-(3-(((R)-5,5-dioxido-7a,8,9,10-tetrahydropyrido[2,3-f]pyrrolo[2,1-d][1,2,5]thiadiazepin-6(7H)-yl)methyl)-4-methylphenyl)-3-(3-ethyl-8-methyl-[1,2,4]triazolo[4,3-a]pyridin-7-yl)propanoic Acid]	293
1.65	Cc1ccc([C@H](CC(=O)O)c2ccn3c(C(F)(F)F)nnc3c2C)cc1CN1CC(C)(C)Oc2ccccc2S1(=O)=O (single isomer, unassigned) [Example 284, 3-(3-((4,4-Dimethyl-1,1-dioxido-3,4-dihydro-2H-benzo[b][1,4,5]oxathiazepin-2-yl)methyl)-4-methylphenyl)-3-(8-methyl-3-(trifluoromethyl)-[1,2,4]triazolo[4,3-a]pyridin-7-yl)propanoic Acid]	213
3.39	Cc1ccc([C@@H](CC(=O)O)c2ccn3c(C(F)(F)F)nnc3c2C)cc1CN1CC(C)(C)Oc2ccccc2S1(=O)=O (single isomer, unassigned) [Example 286, (*R)-3-(3-((4,4-Dimethyl-1,1-dioxido-3,4-dihydro-2H-benzo[b][1,4,5]oxathiazepin-2-yl)methyl)-4-methylphenyl)-3-(8-methyl-3-(trifluoromethyl)-[1,2,4]triazolo[4,3-a]pyridin-7-yl)propanoic Acid]	504
